# Data: article PMC5306082, “Physiologically based kinetic modeling of the bioactivation of myristicin” (Archives of Toxicology, 2016)
# Experiment: Microsomal conversion of myristicin, human liver microsomes
# Type: in vitro ADME
# Protocol: First, it was determined which organs are involved in the biotransformation of myristicin in rat and human. For this purpose, liver, kidney, lung, and small intestine microsomes from male Sprague–Dawley rat and pooled gender human were used. Incubations were performed by adding myristicin to incubation mixtures containing 1 mg/mL of the microsomal protein preparations and 3 mM NADPH in 0.2 M Tris–HCl (pH 7.4). After 1 min of pre-incubation at 37 °C, myristicin (final concentration, 1000 μM) was added from a 100 times concentrated stock solution in DMSO so that the final DMSO content was 1 % (v/v). Incubations were carried out for 30 min after which the reactions were terminated by adding 25 µl (0.25 times the incubation volume) of ice-cold ACN. Samples were centrifuged for 5 min at 13,000×g, and the supernatant was stored at −20 °C until UPLC analysis. As metabolism of myristicin was observed only in incubations with liver microsomes for male rats and pooled gender human, the determination of kinetic constants for the formation of microsomal metabolites was performed only for the liver fractions. Incubations to determine kinetic constants were performed following the conditions described above using final concentrations of myristicin from 25 to 1000 μM for rat and human liver. In all incubations, the final concentration of DMSO, in which myristicin was dissolved, was kept at 1 % (v/v). The formation of different microsomal metabolites was linear with time and microsomal protein concentration under the conditions described. Blank incubations were performed in the absence of the cofactor NADPH. All incubations were performed in triplicate.
# Secondary metabolism of the relevant 1′-hydroxy metabolite of myristicin was taken into account by determining the kinetic constants for its conversion in (a) glucuronidation, (b) sulfation, and (c) oxidation, again under conditions that allowed adequate definition of kinetic constants and with <10 % substrate conversion. Incubation samples were subjected to UPLC analysis that was performed as described previously (Punt et al. [2008]). Identification was achieved by comparing the UV spectra of the formed metabolites to the spectra of the synthesized 1′-hydroxymyristicin and 1′-oxomyristicin reference standards. Quantification of all formed metabolites was done by comparing the peak areas to those of calibration curves of the corresponding reference compounds, determined using UPLC with photodiode array detection (UPLC-PDA). The UPLC system was composed of a Waters (Waters, Milford, MA) Acquity solvent manager, sample manager, and photodiode array detector, equipped with Water Acquity UPLC BEH C18 column.
# The gradient for analysis of microsomal metabolites was performed with 100 % ACN and ultrapure water containing 0.1 % (v/v) TFA. The flow rate was 0.6 ml/min. The gradient started at 10 % ACN, increased to 50 % ACN over 4 min, increased to 80 % over 0.5 min, followed by decrease to 10 % ACN over 0.5 min, and finally kept at 10 % for 1 min.
structure (smiles),measurement,setting,value
"C=CC(O)c1cc(OC)c2c(c1)OCO2 (stereo not shown) [1′-Hydroxymyristicin, 1′-hydroxymyristicin]",Vmax,"formation of the metabolite from myristicin, NADPH, mean of three ± SD",0.17 ± 0.03 nmol min^−1 (mg microsomal or S9 protein)^−1
same,In vitro catalytic efficiency,"formation of the metabolite from myristicin, Vmax/Km × 1000",0.726 μl min^−1 (mg microsomal or S9 protein)^−1
same,"Scaled Vmax, in vivo","from myristicin, microsomal protein yield 32 mg/g liver",0.326 μmol/h/g tissue
same,In vivo catalytic efficiency,"from myristicin, scaled Vmax/Km",0.0014 ml/h/g tissue
